Test results published in ChEMBL document CHEMBL4396872, “Pharmacokinetics-Driven Optimization of 4(3 H)-Pyrimidinones as Phosphodiesterase Type 5 Inhibitors Leading to TPN171, a Clinical Candidate for the Treatment of Pulmonary Arterial Hypertension” (J Med Chem, 2019).
Each block holds one molecule with its values, some of them ahead of it. Calls of active or inactive are those of the source. The rule behind the calls is not given here.

How the values were obtained:
Homo sapiens = species: Homo sapiens; experiment: Selectivity ratio of IC50 for N-terminal GST-tagged human PDE6C to IC50 for N-terminal GST-tagged human PDE5A1
[1] = biological target: cGMP-specific 3',5'-cyclic phosphodiesterase (Homo sapiens, UniProt O76074); experiment: Inhibition of N-terminal GST-tagged human PDE5A1 expressed in baculovirus infected sf9 cells using [3H]cGMP as substrate measured after 30 mins by scintillation proximity assay
Rattus norvegicus [2] = experiment: […] activity in MCT-induced pulmonary arterial hypertension Sprague-Dawley rat model assessed as reduction in mean pulmonary artery pressure at 100 mg/kg administered once daily for 21 days starting from 21 days post-MCT challenge by right cardiac catheter method; type: functional, organism-based
Rattus norvegicus [3] = experiment: […] activity in MCT-induced pulmonary arterial hypertension Sprague-Dawley rat model assessed as reduction in mean pulmonary artery pressure at 25 mg/kg administered once daily for 21 days starting from 21 days post-MCT challenge by right cardiac catheter method; type: functional, organism-based
Rattus norvegicus [4] = experiment: […] activity in MCT-induced pulmonary arterial hypertension Sprague-Dawley rat model assessed as reduction in mean pulmonary artery pressure at 1 mg/kg administered once daily for 21 days starting from 21 days post-MCT challenge by right cardiac catheter method; type: functional, organism-based
Rattus norvegicus [5] = experiment: Antihypertensive activity in spontaneously hypertensive rat assessed as reduction in mean arterial pressure at 20 mg/kg administered via single gavage and measured at 4 hrs; type: functional, organism-based
[6] = Tmax in Sprague-Dawley rat at 1 mg/kg, po measured up to 24 hrs by HPLC analysis; type: ADME, organism-based; conditions: in vivo
Rattus norvegicus [7] = experiment: Antihypertensive activity in spontaneously hypertensive rat assessed as reduction in mean arterial pressure at 20 mg/kg administered via single gavage after 6 hrs; type: functional, organism-based
[8] = Oral bioavailability in Sprague-Dawley rat at 1 mg/kg measured up to 24 hrs by HPLC analysis; type: ADME, organism-based; conditions: in vivo
[9] = Cmax in Sprague-Dawley rat at 1 mg/kg, po measured up to 24 hrs by HPLC analysis; type: ADME, organism-based; design: dose 1 mg/kg, route oral; conditions: in vivo
[10] = Clearance in Sprague-Dawley rat at 4 mg/kg, iv measured up to 24 hrs by HPLC analysis; type: ADME, organism-based; conditions: in vivo
[11] = Half-life in Sprague-Dawley rat at 4 mg/kg, iv measured up to 24 hrs by HPLC analysis; type: ADME, organism-based; conditions: in vivo
Rattus norvegicus [12] = experiment: Antihypertensive activity in spontaneously hypertensive rat assessed as reduction in mean arterial pressure at 20 mg/kg administered via single gavage and measured at 2 hrs; type: functional, organism-based
[13] = Half-life in Sprague-Dawley rat at 1 mg/kg, po measured up to 24 hrs by HPLC analysis; type: ADME, organism-based; conditions: in vivo
[14] = Volume of distribution at steady state in Sprague-Dawley rat at 4 mg/kg, iv measured up to 24 hrs by HPLC analysis; type: ADME, organism-based; conditions: in vivo, read-out: Vdss

Ratio IC50 (Homo sapiens): 17
SMILES: CCCOc1ccc(NC(N)=O)cc1-c1nc(CC)c(CC)c(=O)[nH]1

Ratio IC50 (Homo sapiens): 24
IC50 [1]: 0.79 nM
SMILES: CCCOc1ccc(NC(=O)C2CCN(C)CC2)cc1-c1nc(CC)c(CC)c(=O)[nH]1

SMILES: COc1ccccc1Oc1c(NS(=O)(=O)c2ccc(C(C)(C)C)cc2)nc(-c2ncccn2)nc1OCCO
Activity (Rattus norvegicus [2]): Active
Activity (Rattus norvegicus [3]): Active
Activity (Rattus norvegicus [4]): Active

Tmax [6]: 1.6 h
bioavailability [8]: 34%
Cmax [9]: 76 ng/mL
clearance [10]: 30.5 mL/min/kg
half-life [11]: 1.1 h
half-life [13]: 0.65 h
Vd [14]: 1.6 L/kg
SMILES: CCCc1nn(C)c2c(=O)[nH]c(-c3cc(S(=O)(=O)N4CCN(C)CC4)ccc3OCC)nc12
Activity (Rattus norvegicus [5]): inactive
Activity (Rattus norvegicus [2]): Active
Activity (Rattus norvegicus [7]): inactive
Activity (Rattus norvegicus [3]): Active
Activity (Rattus norvegicus [4]): Active
Activity (Rattus norvegicus [12]): Active
